Data reported in patent US9359378B2, “Substituted oxazolo[3,4-a]pyrazines as pharmaceutcals” (BIOLAB SANUS FARMACÊUTICA LTDA., priority 2014, dated 2016).

Molecular target: T1, PDE6 (Bos taurus, UniProt P11541+P23439)
T1 construct: using an enzyme isolated from Cerep bovine retina; tissue Cerep; host or cells: bovine retina
T1 sequence (P11541 2-856 limits assumed): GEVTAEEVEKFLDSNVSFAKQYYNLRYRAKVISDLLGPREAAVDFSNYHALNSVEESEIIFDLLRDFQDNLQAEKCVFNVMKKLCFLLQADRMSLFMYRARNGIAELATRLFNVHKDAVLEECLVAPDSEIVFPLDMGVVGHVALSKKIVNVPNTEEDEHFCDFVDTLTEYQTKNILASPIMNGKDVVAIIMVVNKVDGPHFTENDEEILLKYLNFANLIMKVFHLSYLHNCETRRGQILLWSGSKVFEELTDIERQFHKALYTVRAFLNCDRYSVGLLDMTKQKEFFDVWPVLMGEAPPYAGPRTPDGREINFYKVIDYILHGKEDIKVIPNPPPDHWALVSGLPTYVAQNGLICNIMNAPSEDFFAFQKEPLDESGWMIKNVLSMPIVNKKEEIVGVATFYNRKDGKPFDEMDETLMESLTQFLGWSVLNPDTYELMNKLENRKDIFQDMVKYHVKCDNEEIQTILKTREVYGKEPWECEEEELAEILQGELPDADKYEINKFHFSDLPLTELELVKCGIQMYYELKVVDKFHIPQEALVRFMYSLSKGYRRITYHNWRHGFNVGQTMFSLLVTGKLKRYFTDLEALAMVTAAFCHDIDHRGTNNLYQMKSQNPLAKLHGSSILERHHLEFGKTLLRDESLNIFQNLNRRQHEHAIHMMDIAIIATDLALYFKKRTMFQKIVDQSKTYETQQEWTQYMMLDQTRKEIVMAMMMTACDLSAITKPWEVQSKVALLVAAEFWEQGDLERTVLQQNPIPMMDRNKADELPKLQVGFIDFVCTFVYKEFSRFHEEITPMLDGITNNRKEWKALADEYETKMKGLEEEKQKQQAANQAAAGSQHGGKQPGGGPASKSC
T1 sequence (P23439 2-850 limits assumed): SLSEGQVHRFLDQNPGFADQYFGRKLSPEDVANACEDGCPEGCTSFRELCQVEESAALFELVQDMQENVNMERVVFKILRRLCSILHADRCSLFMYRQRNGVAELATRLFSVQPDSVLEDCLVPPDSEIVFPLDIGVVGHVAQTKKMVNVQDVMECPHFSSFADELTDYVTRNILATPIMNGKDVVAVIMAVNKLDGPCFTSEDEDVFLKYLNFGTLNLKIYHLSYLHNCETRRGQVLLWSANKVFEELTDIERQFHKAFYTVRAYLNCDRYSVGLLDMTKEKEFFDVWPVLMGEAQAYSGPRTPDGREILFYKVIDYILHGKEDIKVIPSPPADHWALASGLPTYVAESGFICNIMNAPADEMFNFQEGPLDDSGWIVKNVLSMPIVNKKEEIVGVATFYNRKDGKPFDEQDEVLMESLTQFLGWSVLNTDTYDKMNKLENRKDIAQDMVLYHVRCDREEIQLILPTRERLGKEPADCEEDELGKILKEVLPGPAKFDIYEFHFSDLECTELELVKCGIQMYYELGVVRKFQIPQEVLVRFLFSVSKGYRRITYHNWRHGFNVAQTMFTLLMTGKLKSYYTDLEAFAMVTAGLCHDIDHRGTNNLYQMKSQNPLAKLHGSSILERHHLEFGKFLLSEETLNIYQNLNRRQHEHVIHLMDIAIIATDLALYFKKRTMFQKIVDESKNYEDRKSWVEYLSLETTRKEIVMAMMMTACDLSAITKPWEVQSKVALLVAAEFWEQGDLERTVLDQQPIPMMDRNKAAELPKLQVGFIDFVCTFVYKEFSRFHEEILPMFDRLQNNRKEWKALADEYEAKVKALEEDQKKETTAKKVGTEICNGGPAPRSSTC
Assay: PDE6 enzyme inhibition (SPA, enzyme isolated from bovine retina)
Type: biochemical
Conditions: FIGS. 14 and 15, test concentration not given
Procedure: The effects of compounds BL-230 and BL-236 on PDE6 human enzyme activity were quantified by measuring the production of 5′GMP from cGMP, using an enzyme isolated from Cerep bovine retina of and the detection method used was scintillation proximity assay (SPA).
The test compound, the reference compound or water (control) were added to a buffer containing 40 mM Tris-HCl (pH 7.8), 3 mM MgCl2, 1.4 mM DTT, 0.21% BSA, 200 mM NH4Cl, 2 uM cGMP and 0.05 μCi of [^3H] cGMP. Then the reaction was started by adding the enzyme (final amount depending on the efficiency of the isolation) and the mixture was incubated for 60 minutes at 22° C. For basal control measurements, the enzyme was omitted from the reaction mixture. Following this, the SPA incubation beads were added. After 20 minutes at 22° C. under agitation, the amount of [^3H] 5′GMP was quantified with a scintillation counter (Topcount, Packard). The results were expressed as an inhibition percentage of the control enzyme activity. The standard inhibitory reference compound zaprinast was used, which was tested in each experiment at several concentrations to obtain an inhibition curve from which its IC50 value was calculated. […]

| inhibition of PDE6 enzyme activity | SMILES |
| --- | --- |
| 85% | O=C1C2=C(c3c[nH]c4ccccc34)OC(c3ccc4c(c3)OCO4)N2C(=O)CN1CCO (centres unmarked) [BL-230, 3-(benzo[d][1,3]dioxol-5yl)-7-(2-hydroxyethyl)-1-(1H-indol-3-yl)-6,7-dihydro-3H-oxazolo[3,4-a]pyrazine-5,8-dione] |
| 90% | C[C@@H](CO)N1CC(=O)N2C(=C(c3c[nH]c4ccccc34)OC2c2ccc3c(c2)OCO3)C1=O (stereo partly drawn) [BL-236, 3-(benzo[d][1,3]dioxol-5yl)-7-((S)1-hydroxypropan-2yl)-1-(1H-indol-3-yl)-6,7-dihydro-3H-oxazolo[3,4-a]pyrazine-5,8-dione] |
